A word on the IC50: it is the midpoint of a concentration-inhibition curve. Low values mean higher potency, high ones lower potency. For orientation: stoichiometry N means the number of molecules, sites or subunits per partner or assembly.

Consider 2 molecules from paper PMC6537752, “Molecular characterization of CHAD domains as inorganic polyphosphate-binding modules” (Life Science Alliance, 2019).

The target in one series is T1, CtCHAD (Chlorobaculum tepidum, UniProt Q8KE09).
T1 construct: gene CT0884; CHAD domain, residues 208-522; N-terminal 6xHis tag cleaved by TEV; E. coli BL21 (DE3) RIL; 36,194 D monomer; mainly dimer, some tetramer in solution
T1 sequence (Q8KE09 208-522): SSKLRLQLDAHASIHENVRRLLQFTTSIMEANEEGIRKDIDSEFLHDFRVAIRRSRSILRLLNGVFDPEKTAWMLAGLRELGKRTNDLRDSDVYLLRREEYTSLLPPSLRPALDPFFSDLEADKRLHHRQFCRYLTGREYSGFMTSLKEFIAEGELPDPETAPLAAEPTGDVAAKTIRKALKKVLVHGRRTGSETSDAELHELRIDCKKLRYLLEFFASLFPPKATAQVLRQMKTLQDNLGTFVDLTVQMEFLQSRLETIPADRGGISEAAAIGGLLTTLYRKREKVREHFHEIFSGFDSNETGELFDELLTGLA
Put plainly: grating-coupled interferometry competition against polyP-coated chip. The series is classed as binding.

The target of series [1] is T2, ygiF-full length 1–433 (FL) (Escherichia coli, UniProt P30871).
T2 sequence (P30871 1-433): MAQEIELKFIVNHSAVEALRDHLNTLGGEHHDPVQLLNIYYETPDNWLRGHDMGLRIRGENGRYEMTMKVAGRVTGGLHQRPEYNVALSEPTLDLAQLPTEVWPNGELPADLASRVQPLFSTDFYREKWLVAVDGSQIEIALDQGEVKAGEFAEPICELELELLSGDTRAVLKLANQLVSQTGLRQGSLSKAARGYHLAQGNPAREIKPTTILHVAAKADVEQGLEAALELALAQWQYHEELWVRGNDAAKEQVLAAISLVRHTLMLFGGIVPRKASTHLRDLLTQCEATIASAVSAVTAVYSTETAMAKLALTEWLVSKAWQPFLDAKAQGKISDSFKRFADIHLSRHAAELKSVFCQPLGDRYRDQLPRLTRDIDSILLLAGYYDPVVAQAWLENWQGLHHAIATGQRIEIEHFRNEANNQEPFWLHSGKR
Description: malachite green phosphate release. The note with it: 10 nM enzyme, 500 μM substrate, 20 mM Bis-Tris propane pH 8.5, 150 mM NaCl, 5 mM MgCl2, 37°C, 7 min. The series is classed as biochemical.

The next series concerns the target T3, ygiF-TTM 1–200 (TTM) (Escherichia coli, UniProt P30871).
T3 sequence (P30871 1-200): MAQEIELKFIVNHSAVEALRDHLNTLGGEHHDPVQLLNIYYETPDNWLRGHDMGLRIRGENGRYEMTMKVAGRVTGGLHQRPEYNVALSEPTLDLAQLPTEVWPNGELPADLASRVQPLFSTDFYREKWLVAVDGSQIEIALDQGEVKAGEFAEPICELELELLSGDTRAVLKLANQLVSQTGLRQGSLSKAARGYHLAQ
Description: malachite green phosphate release. The series is classed as biochemical. The note with it: 10 nM enzyme, 500 μM substrate, 20 mM Bis-Tris propane pH 8.5, 150 mM NaCl, 5 mM MgCl2, 37°C, 7 min.

Series [2] deals with the molecule itself. Put plainly: SEC; analytical size-exclusion chromatography, Superdex 200 Increase 10/300 GL, buffer A (50 mM PBS, pH 7.5, 500 mM NaCl), 500 μl of protein at 0.5 mg/ml, no polyP. Background: In gel filtration, larger molecules generally elute earlier.
Series [3] concerns the molecule itself. Put plainly: SEC-RALS (size-exclusion chromatography with right-angle light scattering); apo CtCHAD, 2 mg/ml, 20 mM Hepes pH 7.5, 150 mM NaCl, Superdex 200 10/300 increase, 35°C.
Series [4] deals with the molecule itself. Put plainly: SEC-RALS (size-exclusion chromatography with right-angle light scattering); CtCHAD incubated with 1 mM polyP (average chain length ∼30 Pi units) for 3 h at room temperature, 2 mg/ml, 20 mM Hepes pH 7.5, 150 mM NaCl, Superdex 200 10/300 increase, 35°C.

As for `O=P(O)(O)OP(=O)(O)OP(=O)(O)O` [tripolyphosphate], the IC50 at CtCHAD is approximately 200 nM. In addition, the “malachite green phosphate release” value was “CHAD domain stimulated the previously reported tripolyphosphatase activity of ygiF” in series [1]; “The substrates tested were ATP (Merck), sodium tripolyphosphate (Merck), and polyP” on ygiF-TTM 1–200 (TTM).

B1: CtCHAD^208–522 (CHAD domain–containing protein from Chlorobium tepidum) (domain or fragment, UniProt Q8KE09 208-522, looked up)
chain: SSKLRLQLDAHASIHENVRRLLQFTTSIMEANEEGIRKDIDSEFLHDFRVAIRRSRSILRLLNGVFDPEKTAWMLAGLRELGKRTNDLRDSDVYLLRREEYTSLLPPSLRPALDPFFSDLEADKRLHHRQFCRYLTGREYSGFMTSLKEFIAEGELPDPETAPLAAEPTGDVAAKTIRKALKKVLVHGRRTGSETSDAELHELRIDCKKLRYLLEFFASLFPPKATAQVLRQMKTLQDNLGTFVDLTVQMEFLQSRLETIPADRGGISEAAAIGGLLTTLYRKREKVREHFHEIFSGFDSNETGELFDELLTGLA
notes: CHAD domain of the C. tepidum CHAD domain–containing protein, UniProt Q8KE09, residues 208-522; synthetic gene; not shown: His6, N-terminal, cleaved
As for B1, the “stoichiometry N” value in series [2] was 2; in series [3], 4; in series [4], not below 4.
